From ChEMBL document CHEMBL1201862, “PubChem BioAssay data set” (2004) come the findings set out here.

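96-well plates; 48 h exposure; 5 concentrations. Endpoints by linear interpolation between flanking doses. Not reached: highest tested concentration assigned. At the GI50, growth is halved.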 Activity calls are given as the source filed them. Cut-off read from the data, not from the text of the source: active = GI50 up to about 1.1 µM and inactive = higher.

Some test systems named below: SN12C; UO-31; OVCAR-5; UACC-257; PC-3; NCI-H226; A498; A549; ACHN; IGROV-1; U-251; SNB-19; CCRF-CEM; SW-620; SNB-75; RPMI-8226; CAKI-1; SR; SK-OV-3.
Holding throughout (test): DTP human tumour cell line panel, 48 h

For orientation: GI50 means the concentration giving 50% growth inhibition. As to `O=C1c2ccccc2/C=C\C(c2ccccc2)=N/N1c1ccccc1Cl`, the GI50 with SN12C was 23 µM (inactive); with UO-31, 32.5 µM (inactive); in the assay with OVCAR-5 it was 72.3 µM (inactive); in the assay on UACC-257 it was 26.8 µM (inactive); in the assay on PC-3 it was 6.73 µM (inactive); in the assay with NCI-H226, 46.8 µM (inactive). In addition, the GI50 is 26.5 µM (inactive) in the assay with A498; 17.1 µM (inactive) in the assay with A549; 26.4 µM (inactive) in the assay with ACHN; 29.4 µM (inactive) in the assay with IGROV-1; 21.7 µM (inactive) with U-251; 19.1 µM (inactive) with SNB-19. For the same compound, the GI50 is 34.5 µM (inactive) with CCRF-CEM; 20.1 µM (inactive) in the assay on SW-620; 25.9 µM (inactive) in the assay on SNB-75; 23.7 µM (inactive) with RPMI-8226; 16.9 µM (inactive) in the assay on CAKI-1; > 10 µM (inactive) with SR.

For `COC(=O)C(NC(=O)CSc1nnc(COc2ccc(Cl)cc2)n1-c1ccccc1)C(C)C` (stereo unspecified), the GI50 is 18.6 µM (inactive) with SN12C; 26.7 µM (inactive) with UO-31; 28.8 µM (inactive) in the assay on OVCAR-5; 17.7 µM (inactive) in the assay on UACC-257; 21.7 µM (inactive) with PC-3; 17 µM (inactive) in the assay with NCI-H226. Also, the GI50 with A498 was 21.2 µM (inactive); in the assay on A549, 35.2 µM (inactive); in the assay with ACHN it was 39.3 µM (inactive); in the assay with IGROV-1 it was 16.3 µM (inactive); in the assay with U-251, 51.4 µM (inactive); in the assay with SNB-19 it was 29.3 µM (inactive). The GI50 in the assay on CCRF-CEM is 23.4 µM (inactive); in the assay with SW-620, 56.4 µM (inactive); in the assay with SNB-75, 14.6 µM (inactive); with CAKI-1, 10.3 µM (inactive); in the assay on SK-OV-3 it was 37.2 µM (inactive); in the assay on SR, 1.08 µM (active).

Turning to `COc1ccc(P2(=S)OCCOP(=S)(c3ccc(OC)cc3)S2)cc1` (stereo unspecified), the GI50 was 2.56 µM (inactive) with SN12C; 0.638 µM (active) in the assay with UO-31; > 100 µM (inactive) in the assay with OVCAR-5; 11.2 µM (inactive) with UACC-257; 2.26 µM (inactive) in the assay on PC-3; 5.16 µM (inactive) with NCI-H226. In addition, the GI50 in the assay with A498 was 2.45 µM (inactive); in the assay with A549, 3.01 µM (inactive); in the assay with ACHN, 5.98 µM (inactive); in the assay with IGROV-1, 4.03 µM (inactive); in the assay on U-251, 4.03 µM (inactive); in the assay on SNB-19 it was 3.71 µM (inactive). Also, the GI50 in the assay with CCRF-CEM was 2.97 µM (inactive); with SW-620, 4.54 µM (inactive); with SNB-75 it was > 52.7 µM (inactive); with CAKI-1 it was 2.31 µM (inactive); in the assay on SR, 3.6 µM (inactive).

In the case of `Cn1c(=O)c2c(nc3n2CCC(=O)N3CCCCl)n(C)c1=O`, the GI50 in the assay with SN12C, in the assay on UO-31, with OVCAR-5, in the assay on UACC-257, with PC-3 and in the assay on NCI-H226 was > 100 µM (inactive) throughout. For the same compound, the GI50 in the assay with A498, with A549, in the assay on ACHN, with IGROV-1, in the assay on U-251 and with SNB-19 was > 100 µM (inactive) in each case. Moreover, the GI50 in the assay with CCRF-CEM, in the assay on SW-620, with SNB-75, in the assay on RPMI-8226, in the assay on SK-OV-3 and with SR was > 100 µM (inactive) in each case.

Turning to `COC1(C2c3ccccc3CCN2C(=O)OC(C)(C)C)C(=O)C(c2ccccc2)=C1N(C)C` (stereo unspecified), the GI50 in the assay with SN12C is 17.1 µM (inactive); with UO-31, 26.8 µM (inactive); in the assay on OVCAR-5 it was 74.5 µM (inactive); with UACC-257, 40.6 µM (inactive); with PC-3, 25.2 µM (inactive); in the assay on NCI-H226, 19.7 µM (inactive). Besides, the GI50 is 25.4 µM (inactive) in the assay with A498; 27.5 µM (inactive) in the assay with A549; 33.5 µM (inactive) in the assay on ACHN; 37.2 µM (inactive) in the assay with U-251; 27.5 µM (inactive) in the assay on SNB-19; 38.9 µM (inactive) in the assay on CCRF-CEM. Further, the GI50 in the assay on SW-620 is 37.8 µM (inactive); in the assay on SNB-75, 43.6 µM (inactive); with CAKI-1, 45.7 µM (inactive); with SK-OV-3 it was 37.9 µM (inactive); with SR, 79.3 µM (inactive).

In the case of `c1ccc(-c2sc(-c3cccs3)cc2Cc2cccs2)cc1`, the GI50 with SN12C, in the assay with UO-31, in the assay on UACC-257, in the assay on PC-3, in the assay with NCI-H226 and in the assay on A549 was > 10 µM (inactive) in each case. For the same compound, the GI50 with ACHN, in the assay with IGROV-1, in the assay with SNB-19, with CCRF-CEM, in the assay with SW-620 and in the assay on SNB-75 was > 10 µM (inactive) in each case. Moreover, the GI50 in the assay with RPMI-8226, in the assay on CAKI-1, in the assay with SK-OV-3 and with SR was > 10 µM (inactive) each time.

For the compound `COc1ccc(C2=C(Cl)C(=O)O/C2=C\c2ccc(OC)c(Br)c2)cc1Cl`, the GI50 was 53.1 µM (inactive) in the assay on UO-31; 43.5 µM (inactive) in the assay with OVCAR-5; > 100 µM (inactive) with UACC-257; 39.1 µM (inactive) in the assay with PC-3; 17.3 µM (inactive) in the assay on A498; 33.3 µM (inactive) in the assay with A549. In addition, the GI50 in the assay with ACHN is 16.3 µM (inactive); in the assay on IGROV-1, 33.7 µM (inactive); in the assay on U-251, 14.1 µM (inactive); in the assay on SNB-19 it was 31.8 µM (inactive); in the assay with CCRF-CEM, 28.1 µM (inactive); in the assay with SW-620 it was > 100 µM (inactive). Besides, the GI50 in the assay with SNB-75 is > 100 µM (inactive); in the assay with RPMI-8226 it was > 100 µM (inactive); in the assay on CAKI-1, 36.1 µM (inactive); in the assay on SK-OV-3, 37.1 µM (inactive); in the assay with SR it was 51.8 µM (inactive).

As for `CC(O)(C(=O)N(O)c1ccc(Cl)cc1)c1ccc(Cl)cc1` (stereo unspecified), the GI50 is 37.4 µM (inactive) in the assay on SN12C; 26.1 µM (inactive) with UO-31; 37.9 µM (inactive) in the assay on OVCAR-5; 24.8 µM (inactive) with UACC-257; 22.1 µM (inactive) in the assay with PC-3; 40.6 µM (inactive) in the assay with NCI-H226. For the same compound, the GI50 in the assay with A498 is 25.5 µM (inactive); in the assay with A549, 26.4 µM (inactive); with ACHN, 18.7 µM (inactive); with IGROV-1, 19.9 µM (inactive); in the assay on U-251 it was 23.6 µM (inactive); with SNB-19, 48.2 µM (inactive). The GI50 in the assay on CCRF-CEM is 6.08 µM (inactive); with SW-620 it was 31.3 µM (inactive); in the assay on RPMI-8226 it was 11.2 µM (inactive); in the assay on CAKI-1 it was 23.9 µM (inactive); in the assay on SK-OV-3 it was 33.1 µM (inactive); in the assay on SR it was 13.8 µM (inactive).

In the case of `O=c1oc2ccccc2c(Nc2ccc3c(c2)S(=O)(=O)c2ccccc2O3)c1[N+](=O)[O-]`, the GI50 was 25.6 µM (inactive) with SN12C; 33.4 µM (inactive) with UO-31; 70 µM (inactive) in the assay on OVCAR-5; 19.5 µM (inactive) in the assay with UACC-257; 21.5 µM (inactive) with PC-3; 25.7 µM (inactive) in the assay with NCI-H226. The GI50 in the assay with A549 is 28.1 µM (inactive); in the assay with ACHN it was 22.1 µM (inactive); with IGROV-1 it was 21.6 µM (inactive); in the assay with U-251, 19.7 µM (inactive); in the assay on SNB-19, 26.9 µM (inactive); with CCRF-CEM it was 23.6 µM (inactive). In addition, the GI50 is 32.8 µM (inactive) with SW-620; 22 µM (inactive) in the assay on SNB-75; 19.5 µM (inactive) in the assay on RPMI-8226; 17.8 µM (inactive) in the assay with CAKI-1; 24 µM (inactive) with SK-OV-3; 22 µM (inactive) with SR.

For the compound `CNC(=O)OCC1=C(COC(=O)NC)C(C)N(c2ccccc2)C1` (stereo unspecified), the GI50 with SN12C was 72.9 µM (inactive); in the assay with UO-31 it was 22.9 µM (inactive); in the assay with OVCAR-5, 25.4 µM (inactive); with UACC-257, 35.6 µM (inactive); in the assay on PC-3 it was 40.5 µM (inactive); in the assay on NCI-H226, 11.3 µM (inactive). For the same compound, the GI50 with A498 was 3.05 µM (inactive); in the assay on A549, 48 µM (inactive); in the assay on ACHN, 33.7 µM (inactive); with IGROV-1 it was 26.2 µM (inactive); in the assay with U-251 it was 31.8 µM (inactive); in the assay on SNB-19, 58.5 µM (inactive). Also, the GI50 with CCRF-CEM is 37.2 µM (inactive); in the assay with SW-620 it was 46.1 µM (inactive); with SNB-75, 39.4 µM (inactive); in the assay with RPMI-8226, 24.6 µM (inactive); with SK-OV-3, 42.4 µM (inactive); with SR, 24.5 µM (inactive).

As for `COc1ccc(-c2c(C#N)c(N)nc(S)c2C#N)cc1`, the GI50 was 29.1 µM (inactive) with SN12C; 34.9 µM (inactive) in the assay on UO-31; > 100 µM (inactive) with OVCAR-5; 44.6 µM (inactive) with UACC-257; 27.5 µM (inactive) in the assay with PC-3; 21.1 µM (inactive) with NCI-H226. Further, the GI50 is > 100 µM (inactive) with A498; 48.4 µM (inactive) with A549; 71 µM (inactive) in the assay with ACHN; 24.7 µM (inactive) in the assay with IGROV-1; 40.5 µM (inactive) in the assay on U-251; 57.7 µM (inactive) in the assay with SNB-19. Further, the GI50 with SW-620 was 22.2 µM (inactive); with RPMI-8226, 21.5 µM (inactive); in the assay on CAKI-1 it was 42.4 µM (inactive); with SR, 18.3 µM (inactive).
